The source of these data is patent publication US7923984B2, “Universal, wireless, nano-optical voltmeters” (The Regents of the University Of Michigan, priority 2007, dated 2011).

Each structure is given as a SMILES string. Counter-ions that a name gives are not always drawn.

The test system of assay [1] is mitochondrial membrane E field in C6 glioma cells. Put plainly: CCCP depolarization of mitochondria in C6 gliomas monitored by NOV. The class given is cell-based, Mouse. As to conditions: CCCP total concentration 10 μM. How it is done: Depolarization, comparison with TMRM, and cytosol measurements were performed as follows. Mouse C6 glioma cells were plated on to glass cover slips at a concentration of approximately 2.5×10^5 cells/mL. Cells were incubated in DMEM supplemented with 10% FBS and 1% p/s overnight. The media was then removed and replaced with fresh media. NOVs were added to the suspension (125-250 μg particles) and the cells incubated for 30 minutes. The cover slip was rinsed with HBSS containing 10 mmol N-2-Hydroxyethylpiperazine-N′-2-Ethane Sulfonic Acid (HEPES) and placed in a stainless steel cell chamber with 1 mL HBSS containing 10 mmol HEPES. […]
Image analysis was performed as follows. Images were transferred to the MetaMorph image analysis package and regions of interest chosen consistent with TMRM-induced mitochondrial fluorescence, or the autofluorescent mitochondria of the astrocytes. […] The average pixel intensity ratio of the 600 nm image versus the 700 nm image was then calculated. For the TMRM channel, the average pixel intensity was recorded.
CCCP depolarization was performed as follows. […] A region of interest was first determined in Metamorph by the punctuated bright areas that indicated mitochondria through TMRM localization. The emission ratio was then determined at the measurement time points. […]

The test system of assay [2] is mitochondrial membrane E field in DITNC astrocytes. Put plainly: Repeated CCCP depolarizations in astrocytes measured by E-PEBBLEs. As to conditions: 3.1 μM at 3 min 50 s, second dose at 33 min 50 s; 600:700 nm ratio. The format is cell-based, rat. How it is done: Repeated depolarizations of mitochondrial membrane potentials were performed as follows. Astrocytes were prepared as described above. Z series of Images were taken every minute for 15 minutes and every 5 minutes thereafter for 30 minutes. At time 3 minutes 50 sec, 1 μL of a CCCP solution (3.1 mM dissolved in DMSO and HBSS with HEPES; concentration in chamber was 3.1 μM) was added to the chamber. Starting at the 30 minute time point, images were again taken every minute until the 45 minute time point and every five minutes thereafter until the 60 minute time point. At time 33 minutes 50 seconds, a second dose of CCCP (3.1 mM) was added. The final concentration in the cell chamber for CCCP was 6.1 μM.
Cellular image analysis was performed as follows. Images of specific focal planes were transferred to the MetaMorph image analysis package and regions of interest (ROI) chosen consistent with TMRM-induced mitochondrial fluorescence, or the autofluorescent mitochondria of the astrocytes. In some cases, the images were expanded and regions of interest were also chosen from the surrounding cytosol. The average pixel intensity was determined for each ROI, and the emission ratio of the 525:700 nm images was then calculated. In some cases, the emission ratio of 600:700 nm was calculated. […] For the TMRM channel, the average pixel intensity was recorded. […]

The subject of assay [3] is astrocytes, mitochondrial and microfilament regions. Put plainly: CCCP challenge of mitochondrial and microfilament regions in astrocytes. The format is cell-based. The note with it: CCCP at 3 min 45 sec. On the procedure: Microfilaments in astrocytes. Astrocytes were co-incubated with E-PEBBLEs and alexafluor-phalloidin (a microfilament stain). The fluorescence arising from the mitochondria, E-PEBBLEs, and microfilaments were able to be resolved though use of different fluorescent emission filters.
The cells were challenged with CCCP at 3 min 45 sec using normal experimental parameters, as described in Example 7.

Assay [4] concerns mitochondrial membrane E field in DITNC astrocytes. Put plainly: CCCP challenge of mitochondrial membrane E field in DITNC astrocytes measured by E-PEBBLEs. The class given is cell-based, rat. The note with it: CCCP 12.2 μM added at 3 min 40 s. On the procedure:
Mitochondrial membrane and cytosol potentials were measured as follows. Immortalized rat (DITNC) astrocytes with autoflourescent mitochondria (American Type Culture Collection, Manassas, Va.) were plated on to glass cover slips at a concentration of ˜2×10^5 cells/mL. Cells were incubated in Dulbecco's Modified Eagle Medium (DMEM) supplemented with 10% fetal bovine serum and 1% penicillin/streptomycin (Invitrogen, Carlsbad, Calif.) overnight. The media was then removed and replaced with fresh media. […] The cover slip was rinsed with Hank's Balanced Salt Solution (HBSS) (Invitrogen, Carlsbad, Calif.) containing 10 mmol N-2-Hydroxyethylpiperazine-N′-2-Ethane Sulfonic Acid (HEPES) and placed in a stainless steel cell chamber with 1 mL HBSS containing 10 mmol HEPES. In some cases, tetramethylrhodamine methyl ester (TMRM) (Molecular Probes, Eugene, Oreg.) dissolved in dimethyl sulfoxide (DMSO) was added to the chamber for a total concentration of ˜50 nM to confirm mitochondrial fluorescence.
The entire chamber was mounted on a confocal microscope at room temperature (Olympus IX70 connected to a Life Science Resources UltraView equipped with an Ar—Kr laser and a Lambda 10-2 Sutter wheel from Sutter Instrument Co. Novato, Calif.) and examined with a 60× objective connected to a Z series motor. Four Z stacks were taken 1 minute apart, starting with time zero. […] Slices analyzed were ˜3-4 microns into the cell as measured from the bottom of the cell. […]
Cellular image analysis was performed as follows. Images of specific focal planes were transferred to the MetaMorph image analysis package and regions of interest (ROI) chosen consistent with TMRM-induced mitochondrial fluorescence, or the autofluorescent mitochondria of the astrocytes. […] The average pixel intensity was determined for each ROI, and the emission ratio of the 525:700 nm images was then calculated. In some cases, the emission ratio of 600:700 nm was calculated. […] For the TMRM channel, the average pixel intensity was recorded. […]

Assay [5] shares this test system. Put plainly: Sequential CCCP depolarizations in astrocytes monitored by NOVs. The note with it: 5 μM CCCP, second dose at 46 minutes. The class given is cell-based. How it is done:
Repeat depolarizations were performed as follows. Astrocytes were prepared as above, but the cell chamber only contained 500 μL of HBSS with HEPES. 500 μL CCCP (5 μM final concentration in chamber) was added and images were collected every minute for the first 10 minutes after the addition of CCCP and every 5 minutes thereafter until the 45 minute time point. Then 500 μL of the CCCP solution was added at the 46 minute time point, and the images taken every minute until the 55 minute time point and every five minutes until the 90 minute time point.
Image analysis was performed as follows. Images were transferred to the MetaMorph image analysis package and regions of interest chosen consistent with TMRM-induced mitochondrial fluorescence, or the autofluorescent mitochondria of the astrocytes. In some cases, the images were expanded and regions of interest (ROI) were also chosen from the surrounding cytosol. The average pixel intensity ratio of the 600 nm image versus the 700 nm image was then calculated. For the TMRM channel, the average pixel intensity was recorded.
Sequential depolarizations were performed as follows. Astrocytes with autofluorescent mitochondria (to eliminate the need for TMRM) were incubated with NOVs, transferred to a confocal microscope, and the mitochondrial membrane depolarized with the use of CCCP. […]

For assay [6], the system named is DITNC astrocytes. Put plainly: Uptake, localization and tolerability of E-PEBBLEs in astrocytes. The format is cell-based, rat. As to conditions: same final dye concentration as delivered in the E-PEBBLEs.
Description: Cells were illuminated at 488 nm and the fluorescent images were collected at 600 nm (50 nm band pass), 700 nm (50 nm band pass), and 525 nm (50 nm band pass).
Cell groups that appeared visually robust (i.e., elongate with little or no ruffling or blebbing of the membrane) were used for analysis.
Assay [7] has as its system C6 glioma cells. Put plainly: Localization, uptake and cytotoxicity of particles in C6 glioma cells. The format is cell-based, Rat. As to conditions: same final dye concentration as delivered in the NOV.
Protocol: Mouse C6 glioma cells were plated on to glass cover slips at a concentration of approximately 2.5×10^5 cells/mL. Cells were incubated in DMEM supplemented with 10% FBS and 1% p/s overnight. The media was then removed and replaced with fresh media. NOVs were added to the suspension (125-250 μg particles) and the cells incubated for 30 minutes. The cover slip was rinsed with HBSS containing 10 mmol N-2-Hydroxyethylpiperazine-N′-2-Ethane Sulfonic Acid (HEPES) and placed in a stainless steel cell chamber with 1 mL HBSS containing 10 mmol HEPES. In some cases TMRM dissolved in dimethyl sulfoxide was added to the chamber for a total concentration of 50 nM and the chamber was allowed to equilibrate for 10 minutes. The entire chamber was mounted on the confocal microscope and examined with a 60× objective connected to a Z series motor. One mL of a CCCP solution (total concentration 10 μM and, in some cases, containing 50 nM TMRM) was added to the cell chamber and a timer started. A series of images (1 to 2 μm in thickness) was taken in the vertical plane 15 seconds after addition of the CCCP solution, and then every minute for the first 10 minutes. Images were taken at 5 minute intervals thereafter until the 30 minute time point. Cells were illuminated at 488 nm and the fluorescent images were collected at 600 nm (50 nm band pass) and 700 nm (50 nm band pass) for the first two channels. […]

`N#CC(C#N)=NNc1cccc(Cl)c1` [CCCP, Carbonyl cyanide 3-chlorophenylhydrazone]: the “time for mitochondrial E field to approach zero after addition of CCCP” value in assay [1] is “approximately 10 minutes”. For the same molecule, the “change of mitochondrial E field after repeated CCCP doses” value in assay [2] is reported as “the E field rapidly decreases, followed by a modest repolarization”. For the same molecule, in assay [3], the “response of microfilament regions to CCCP” value is recorded as “spike at the 10-15 minute time point” and the “response of mitochondrial regions to CCCP” value was “normal depolarization”. Moreover, in assay [4], the “drop in E field from minute 3 to minute 4” value came out at 55%, the “mitochondrial E field at t=4 min after CCCP” value is −1.4×10^6 V/m and the “overall drop in E field from t=0 min to t=30 min” value is 55%. Moreover, the “change of mitochondrial E field after CCCP” value in assay [5] is “decrease in the E field during the first 10 minutes”.

Regarding `CCCCN(CCCC)c1ccc2cc(C=Cc3cc[n+](CCCS(=O)(=O)[O-])cc3)ccc2c1` [free dye, pyridinium, 4-(2-(6-(dibutylamino)-2-naphthalenyl)ethenyl)-1-(3-sulfopropyl)-, hydroxide, inner salt], in assay [6], the “fluorescence of cells exposed to free dye in an aqueous solution (uptake)” value is listed as “did not fluoresce”. In assay [7], the “fluorescence of cells exposed to free dye in water (uptake)” value is on record as “did not fluoresce”.
